In ChEMBL document CHEMBL3045867, “Synthesis, characterization, and antimicrobial evaluation of novel naphthalene-based 1,2,4-triazoles” (2012) one finds MIC99 data, which are given here for 14 molecules.

Each structure is given as a SMILES string. Converted amounts (≈) assume the structure as drawn.

What all share (type): functional
For assay [1], the system named is Aspergillus clavatus. Put plainly: Antifungal activity against Aspergillus clavatus MTCC 1323 after 72 hr. The conditions noted are these: MTCC 1323, 72 h.
The test system of assay [2] is Aspergillus niger. The experiment in a line: Antifungal activity against Aspergillus niger MTCC 282 after 72 hr. The note with it: MTCC 282, 72 h.
Assay [3] has as its system Candida albicans. Put plainly: Antifungal activity against Candida albicans MTCC 227 after 72 hr. The conditions noted are these: MTCC 227, 72 h.
Assay [4] deals with Streptococcus pyogenes. The experiment in a line: Antibacterial activity against Streptococcus pyogenes MTCC 442 after 24 to 48 hr by serial broth dilution method.
In assay [5] the test system is Staphylococcus aureus. Put plainly: Antibacterial activity against Staphylococcus aureus MTCC 96 after 24 to 48 hr by serial broth dilution method.
For assay [6], the system named is Pseudomonas aeruginosa. Put plainly: Antibacterial activity against Pseudomonas aeruginosa MTCC 1688 after 24 to 48 hr by serial broth dilution method.
The subject of assay [7] is Escherichia coli. The experiment in a line: Antibacterial activity against Escherichia coli MTCC 443 after 24 to 48 hr by serial broth dilution method.

As to `O=C(Nn1c(S)nnc1-c1cccc2ccccc12)c1ccccc1`, the MIC99 in assay [1] is 1000 µg/mL (≈ 2890 µM); in assay [2] it was 1000 µg/mL (≈ 2890 µM); in assay [3] it was 1000 µg/mL (≈ 2890 µM); in assay [4], 1000 µg/mL (≈ 2890 µM); in assay [5], 500 µg/mL (≈ 1440 µM); in assay [6] it was 50 µg/mL (≈ 144 µM). The molecule also came in with an MIC99 in assay [7] of 500 µg/mL (≈ 1440 µM).
Regarding `Cc1ccccc1C(=O)Nn1c(S)nnc1-c1cccc2ccccc12`, the MIC99 stood at 100 µg/mL (≈ 277 µM) in assay [1]; 500 µg/mL (≈ 1390 µM) in assay [2]; 200 µg/mL (≈ 555 µM) in assay [3]; 100 µg/mL (≈ 277 µM) in assay [4]; 500 µg/mL (≈ 1390 µM) in assay [5]; 100 µg/mL (≈ 277 µM) in assay [6]. The MIC99 in assay [7] came out at 100 µg/mL (≈ 277 µM).
Regarding `COc1ccccc1C(=O)Nn1c(S)nnc1-c1cccc2ccccc12`, the MIC99 was 500 µg/mL (≈ 1330 µM) in assay [1]; 200 µg/mL (≈ 531 µM) in assay [2]; 200 µg/mL (≈ 531 µM) in assay [3]; 500 µg/mL (≈ 1330 µM) in assay [4]; 250 µg/mL (≈ 664 µM) in assay [5]; 250 µg/mL (≈ 664 µM) in assay [6]. The molecule further gave an MIC99 in assay [7] of 100 µg/mL (≈ 266 µM).
For the molecule `O=C(Cc1ccccc1)Nn1c(S)nnc1-c1cccc2ccccc12`, the MIC99 amounted to 500 µg/mL (≈ 1390 µM) in assay [1]; 500 µg/mL (≈ 1390 µM) in assay [2]; 1000 µg/mL (≈ 2770 µM) in assay [3]; 200 µg/mL (≈ 555 µM) in assay [4]; 250 µg/mL (≈ 694 µM) in assay [5]; 500 µg/mL (≈ 1390 µM) in assay [6]. Also, the MIC99 in assay [7] came to 500 µg/mL (≈ 1390 µM).
On to `O=C(Nn1c(S)nnc1-c1cccc2ccccc12)c1ccccc1O`, for which the MIC99 in assay [1] was found to be 200 µg/mL (≈ 552 µM); in assay [2], 500 µg/mL (≈ 1380 µM); in assay [3], 500 µg/mL (≈ 1380 µM); in assay [4] it was 500 µg/mL (≈ 1380 µM); in assay [5], 500 µg/mL (≈ 1380 µM); in assay [6], 1000 µg/mL (≈ 2760 µM). Besides, in assay [7], the MIC99 was 1000 µg/mL (≈ 2760 µM).
As for `O=C(Nn1c(S)nnc1-c1cccc2ccccc12)c1ccccc1Cl`, the MIC99 came out at 250 µg/mL (≈ 656 µM) in assay [1]; 100 µg/mL (≈ 263 µM) in assay [2]; 50 µg/mL (≈ 131 µM) in assay [3]; 500 µg/mL (≈ 1310 µM) in assay [4]; 500 µg/mL (≈ 1310 µM) in assay [5]; 100 µg/mL (≈ 263 µM) in assay [6]. The MIC99 in assay [7] turned out to be 50 µg/mL (≈ 131 µM).
As for `O=C(Nn1c(S)nnc1-c1cccc2ccccc12)c1cccc(Cl)c1`, the MIC99 worked out at 50 µg/mL (≈ 131 µM) in assay [1]; 50 µg/mL (≈ 131 µM) in assay [2]; 50 µg/mL (≈ 131 µM) in assay [3]; 100 µg/mL (≈ 263 µM) in assay [4]; 250 µg/mL (≈ 656 µM) in assay [5]; 250 µg/mL (≈ 656 µM) in assay [6]. Besides, the MIC99 in assay [7] was found to be 25 µg/mL (≈ 65.6 µM).
Consider `O=C(Nn1c(S)nnc1-c1cccc2ccccc12)c1cccc([N+](=O)[O-])c1`, for which the MIC99 in assay [1] was found to be 100 µg/mL (≈ 255 µM); in assay [2], 200 µg/mL (≈ 511 µM); in assay [3], 200 µg/mL (≈ 511 µM); in assay [4], 500 µg/mL (≈ 1280 µM); in assay [5] it was 100 µg/mL (≈ 255 µM); in assay [6] it was 100 µg/mL (≈ 255 µM). In assay [7], the MIC99 came out at 100 µg/mL (≈ 255 µM).
`O=C(Nn1c(S)nnc1-c1cccc2ccccc12)c1ccc(O)cc1`: the MIC99 in assay [1] was determined as 500 µg/mL (≈ 1380 µM); in assay [2], 500 µg/mL (≈ 1380 µM); in assay [3], 500 µg/mL (≈ 1380 µM); in assay [4], 500 µg/mL (≈ 1380 µM); in assay [5], 100 µg/mL (≈ 276 µM); in assay [6] it was 100 µg/mL (≈ 276 µM). Also, the MIC99 in assay [7] is 250 µg/mL (≈ 690 µM).
For `O=C(Nn1c(S)nnc1-c1cccc2ccccc12)c1ccc([N+](=O)[O-])cc1`, the MIC99 in assay [1] was found to be 50 µg/mL (≈ 128 µM); in assay [2], 50 µg/mL (≈ 128 µM); in assay [3] it was 50 µg/mL (≈ 128 µM); in assay [4], 500 µg/mL (≈ 1280 µM); in assay [5] it was 250 µg/mL (≈ 639 µM); in assay [6], 25 µg/mL (≈ 63.9 µM). The molecule further displayed an MIC99 in assay [7] of 50 µg/mL (≈ 128 µM).
As for `O=C(Nn1c(S)nnc1-c1cccc2ccccc12)c1ccc2cccc([N+](=O)[O-])c2c1`, the MIC99 is 50 µg/mL (≈ 113 µM) in assay [1]; 100 µg/mL (≈ 227 µM) in assay [2]; 100 µg/mL (≈ 227 µM) in assay [3]; 250 µg/mL (≈ 566 µM) in assay [4]; 250 µg/mL (≈ 566 µM) in assay [5]; 100 µg/mL (≈ 227 µM) in assay [6]. The same molecule yielded an MIC99 in assay [7] of 200 µg/mL (≈ 453 µM).
As for `O=C(COc1ccc2ccccc2c1)Nn1c(S)nnc1-c1cccc2ccccc12`, the MIC99 in assay [1] was found to be 500 µg/mL (≈ 1170 µM); in assay [2], 500 µg/mL (≈ 1170 µM); in assay [3], 500 µg/mL (≈ 1170 µM); in assay [4], 500 µg/mL (≈ 1170 µM); in assay [5] it was 250 µg/mL (≈ 586 µM); in assay [6], 250 µg/mL (≈ 586 µM). Moreover, the MIC99 in assay [7] was 100 µg/mL (≈ 234 µM).
On to `CC1(C)S[C@@H]2[C@H](NC(=O)[C@H](N)c3ccccc3)C(=O)N2[C@H]1C(=O)O` [AMPICILLIN], for which the MIC99 amounted to 100 µg/mL (≈ 286 µM) in assay [4], 250 µg/mL (≈ 715 µM) in assay [5], 100 µg/mL (≈ 286 µM) in assay [6] and 100 µg/mL (≈ 286 µM) in assay [7].
As for `COC1=CC(=O)C[C@@H](C)[C@]12Oc1c(Cl)c(OC)cc(OC)c1C2=O` [GRISEOFULVIN], the values for the MIC99 in assay [1], in assay [2] and in assay [3] were 100 µg/mL (≈ 283 µM), 100 µg/mL (≈ 283 µM) and 500 µg/mL (≈ 1420 µM), respectively.
